# Results reported in patent US4022842A, “Bibenzyl compounds” (Rikagaku Kenkyusho, priority 1972, dated 1977).
# Where two headings read alike, the source gives them in different places.
# Tests used:
# lettuce seeds = assay: Inhibition of germination of lettuce seeds, 50% inhibition (Example 5, Table 2); assay type: in vivo, Lactuca sativa L.; conditions: 1% dimethylformamide; for IC50: Lactuca sativa, 48 h
# Protocol: Every compound shown in Table 1 was respectively dissolved at various concentrations in distilled water containing 1% of dimethylformamide, and 3 ml each of the resulting solutions was poured into a culture dish of 6 cm diameter in which 2 filter papers were spread. About 100 seeds (non-dormant ware head seeds) of lettuce (Lactuca sativa L.) were shown in each dish, and they were allowed to stand at 23° C. in the dark for 2 days. Germination percentages were determined and plotted against the concentrations of the compound tested. From the graphs obtained the concentration to give 50% inhibition was determined. The definition of inhibition rate is given in the following formula: [formula] Usually the germination percentage of the untreated control lot was about 95%.
# oats coleoptile = assay: Growth inhibition in oats coleoptile sections (Example 4, Table 1); design: species or system Avena sativa L.; conditions: for IC50: Avena sativa
# Protocol: A compound illustrated in Table 1 was dissolved in dimethylformamide and the solution was diluted to desired concentrations with water containing 2% of sucrose. In control test dimethylformamide was applied in the same amount as that of treated groups. This solvent gives no phytotoxicity to plants to be tested if the content in water is 1% or less. The prepared liquors were poured into culture dishes of 3 cm diameter, the amount of the medium poured into one dish being 2 ml. Sections of 5 mm in length cut from a coleoptiles of oats (Avena sativa L.) which have been grown in the dark were floated on the test media in the culture dishes and cultured at 25° C. for 20 hours in the dark to determine the growth-inhibition degrees.
# In the control group, the coleoptile elongated by about 5 mm during the experiment.
# Bulbils of yam [1] = assay: Germination (sprouting) of yam bulbils awakened from dormancy (Example 6, Table 3); assay type: in vivo, Dioscorea batatas Decne.; conditions: 300 μg/ml; 23° C., light of 1800 luxes, 2 weeks; untreated control 80
# Protocol: Bulbils (fleshy buds for breeding formed on stems) of yam (Dioscorea batatas Decne.) were stored at a low temperature of 5° C. for 3 months and awakened from hibernation. These fleshy buds were treated with the agricultural chemical of this invention in the following manner to lead them to hibernation again.
# Every active ingredient compound of this invention shown in the following Table 3 was dissolved emulsified in distilled water containing 1% of dimethylformamide and 0.05% of Tween 20. 25 ml of the resulting liquor was poured into a culture dish of 9 cm diameter in which absorbent cotton was spread, and 30 of bulbis which had been subjected to the above low temperature treatment and awakened from dormancy were sown on the dish and they were allowed to sprout at 23° C. under light of 1800 luxes for 2 weeks.
# Seedings of lettuce = assay: Growth inhibition of lettuce seedling stems (hypocotyls) (Example 10, Table 7); assay type: in vivo, Lactuca sativa L.; conditions: Lactuca sativa, 72 h, read-out: Growth Inhibition Ratio
# Protocol: 4-Hydroxy-2,6,7-trimethoxyphenanthrene or 3,3'-dihydroxy-5-methoxybibenzyl was dissolved in acetone, and the resulting solution was placed in culture dishes in which 2 layers of filter paper were spread so as to give required amounts of the test compound. After the acetone was removed by evaporation, Hoagland's nutrient solution containing 0.05% of Tween 20 was poured into the culture dishes. Seedings of lettuce (Lactuca sativa L.), which had been germinated in a different place, were transplanted to the culture dishes and cultivation was carried out in a light place at 23° C. for 3 days. Then, the lengths of the stems (hypocotyls) were measured to determined the growth inhibition ratio.
# oats coleoptiles = assay: Growth inhibition of oats coleoptile pieces with indoleacetic acid (Example 9, Table 6); design: species or system Avena sativa L.; conditions: Avena sativa, read-out: Growth Inhibition ratio
# Protocol: Oats (Avena sativa L.) were allowed to germinate under a weak red light at 25° C. and 3 days after germination sections of […] in length were cut from coleoptiles about 25 mm in length. 4-Hydroxy-2,6,7-trimethoxyphenanthrene or 3,3-dihydroxy-5-methoxybibenzyl was dissolved in a culture medium comprising 0.1 mg/l of indoleacetic acid, 0.05% of Tween 20 and 2% of sucrose, the balance being water. Ten of the above cut-out coleoptile pieces were flated on the resulting culture medium and cultivation was conducted at 25° C. for 18 hours to examine the growth state and the results shown in Table 6 were obtained.
# bulbils of yam [2] = assay: Sprouting of yam bulbils in dark or light (Example 7, Table 4); assay type: in vivo, Discorea batatas Decne.; conditions: 23° C., 20 days
# Protocol: 4-Hydroxy-2,6,7-trimethoxyphenanthrene and 3,3'-dihydroxy-5-methoxybibenzylwere respectively dissolved at various concentrations in water containing 0.05% of Tween 20, and 30 ml each of the resulting solutions were poured into culture dishes of 9 cm in diameter containing 1 g of absorbent cotton.
# Thirty bulbils of yam (Discorea batatas Decne.) which had been awakened from dormancy were planted in each of the so arranged culture dishes, and the germination test was carried out at 23° C. either in the dark or in the light. […]
# seeds of a lettuce = assay: Germination ratio of lettuce seeds (Example 8, Table 5); assay type: in vivo, Lactuca sativa L.; conditions: for Germination Ratio: 23° C., 2 days, untreated control 90; for Germination after washing and transplanting: washed with water, transplanted on culture dish free of compound
# Protocol: 4-Hydroxy-2,6,7-trimethoxyphenanthrene and 3,3'-dihydroxy-5-methoxybibenzylwere respectively dissolved in water containing 0.05% of Tween 20 and 1% of dimethylformamide, and each of the resulting solution was poured into a culture dish, 6 cm in diameter, in which 2 layers of filter paper were spread to form a germination bed. 100 seeds of a lettuce (Lactuca sativa L.) were sown on the germination bed and cultivation was conducted for 2 days at 23° C. […] [formula]
# Solubility = assay type: physicochemical; conditions: for Solubility in ordinary solvents: ethanol, acetone, ethyl acetate and ether
# [3] = 23° C., dark, 2 days, read-out: Inhibition of Germination of Lettuce Seeds, Concentration Giving 50% Inhibition
# [4] = 5 mm sections, 25° C., 20 hours, dark, read-out: Growth Inhibition in oats coleoptile (concentration giving 50% inhibition)
# [5] = read-out: Inhibition of Germination of Lettuce Seeds, Concentration Giving 50% Inhibition, 23° C., dark, 2 days
# [6] = 20 h, read-out: Growth Inhibition in oats coleoptile (concentration giving 50% inhibition), 5 mm sections, 25° C., 20 hours, dark
# [7] = 100 mg/l, dark place, untreated control 56
# [8] = 100 mg/l, light place, untreated control 44
# [9] = 300 mg/l, dark place, untreated control 56
# [10] = 300 mg/l, light place, untreated control 44
# [11] = 1000 mg/l, dark place, untreated control 56
smiles,measurement,setting,value
"COc1ccc(CCc2cc(O)cc(O)c2)cc1O [Compound 7, 3,3',5'-trihydroxy-4-methoxybibenzyl]",IC50,lettuce seeds; [3],75 µg/mL
same,IC50,oats coleoptile; [4],75 µg/mL
"COc1cc(OC)c2c(ccc3ccc(O)cc32)c1 [Compound 13, 2,4-dimethoxy-6-hydroxyphenanthrene]",Germination Ratio,Bulbils of yam [1],60%
same,"Inhibition of Germination of Lettuce Seeds, Concentration Giving 50% Inhibition","lettuce seeds; 23° C., dark, 2 days",80 µg/mL
same,Growth Inhibition in oats coleoptile (concentration giving 50% inhibition),"oats coleoptile; 5 mm sections, 25° C., 20 hours, dark",90 µg/mL
"COc1cc(OC)c2c(ccc3ccc(O)cc32)c1 [Compound 9, 2,4-dimethoxy-6-hydroxyphenanthrene]",IC50,lettuce seeds; [5],100 µg/mL
same,IC50,oats coleoptile; [6],130 µg/mL
"COc1cc(O)c2c(ccc3cc(OC)c(OC)cc32)c1 [Compound 10, 4-hydroxy-2,6,7-trimethoxyphenanthrene]",Germination Ratio,Bulbils of yam [1],45%
same,inhibition at 30 µg/mL,Seedings of lettuce,13%
same,inhibition at 100 µg/mL,Seedings of lettuce,45%
same,inhibition at 300 µg/mL,Seedings of lettuce,72%
same,inhibition at 30 µg/mL,oats coleoptiles; 18 h,16%
same,inhibition at 100 µg/mL,oats coleoptiles; 18 h,44%
same,inhibition at 300 µg/mL,oats coleoptiles; 18 h,79%
same,IC50,lettuce seeds; [5],60 µg/mL
same,Sprouting Ratio,bulbils of yam [2]; [7],46%
same,Sprouting Ratio,bulbils of yam [2]; [8],14%
same,Sprouting Ratio,bulbils of yam [2]; [9],30%
same,Sprouting Ratio,bulbils of yam [2]; [10],8%
same,Sprouting Ratio,bulbils of yam [2]; [11],23%
same,IC50,oats coleoptile; [6],90 µg/mL
same,Germination Ratio,seeds of a lettuce; 30 mg/l,78%
same,Germination Ratio,seeds of a lettuce; 100 mg/l,43%
same,Germination Ratio,seeds of a lettuce; 300 mg/l,10%
same,Blight of germination-inhibited seeds,seeds of a lettuce; after treatment,not blighted
same,Germination after washing and transplanting,seeds of a lettuce,complete germination
"CC(=O)c1cc2ccccc2c2cc(Cl)ccc12 [Compound 14, 6-chloro-9-acetylphenanthrene]",Germination Ratio,Bulbils of yam [1],70%
same,IC50,lettuce seeds; [5],30 µg/mL
same,IC50,oats coleoptile; [6],70 µg/mL
"COc1cc(O)cc(CCc2cccc(O)c2)c1 [Compound 8, 3,3'-dihydroxy-5-methoxybibenzyl]",Germination Ratio,Bulbils of yam [1],50%
same,inhibition at 30 µg/mL,"Seedings of lettuce; 30 mg/l, stem (hypocotyl) length, light place, 23° C., 3 days",21%
same,inhibition at 100 µg/mL,"Seedings of lettuce; 100 mg/l, stem (hypocotyl) length, light place, 23° C., 3 days",48%
same,inhibition at 300 µg/mL,"Seedings of lettuce; 300 mg/l, stem (hypocotyl) length, light place, 23° C., 3 days",86%
same,Solubility in ordinary solvents,Solubility,Soluble
same,Solubility in hexane,Solubility,insoluble
same,Solubility in water,Solubility,difficultly soluble
same,inhibition at 30 µg/mL,"oats coleoptiles; 30 mg/l, 0.1 mg/l indoleacetic acid, 25° C., 18 hours",39%
same,inhibition at 100 µg/mL,"oats coleoptiles; 100 mg/l, 0.1 mg/l indoleacetic acid, 25° C., 18 hours",76%
same,inhibition at 300 µg/mL,"oats coleoptiles; 300 mg/l, 0.1 mg/l indoleacetic acid, 25° C., 18 hours",84%
same,IC50,lettuce seeds; [3],80 µg/mL
same,Sprouting Ratio,bulbils of yam [2]; [7],56%
same,Sprouting Ratio,bulbils of yam [2]; [8],23%
same,Sprouting Ratio,bulbils of yam [2]; [9],22%
same,Sprouting Ratio,bulbils of yam [2]; [10],18%
same,Sprouting Ratio,bulbils of yam [2]; [11],14%
same,IC50,oats coleoptile; [4],100 µg/mL
same,Germination Ratio,seeds of a lettuce; 30 mg/l,52%
same,Germination Ratio,seeds of a lettuce; 100 mg/l,26%
same,Germination Ratio,seeds of a lettuce; 300 mg/l,0%
same,Blight of germination-inhibited seeds,seeds of a lettuce; in vivo,not blighted
same,Germination after washing and transplanting,seeds of a lettuce,complete germination
"COc1cc2c(cc1O)CCc1cc(OC)c(OC)c(O)c1-2 [Compound 17, 4,7-dihydroxy-2,3,6-trimethoxy-9,10-dihydrophenanthrene]",Germination Ratio,Bulbils of yam [1],40%
same,IC50,lettuce seeds; [3],120 µg/mL
same,IC50,oats coleoptile; [4],200 µg/mL
"Oc1c(Cl)cc(Cl)cc1CCc1cc(Cl)cc(Cl)c1O [Compound 6, 3,5,3',5'-tetrachloro-2,2'-dihydroxybibenzyl]",Germination Ratio,Bulbils of yam [1],15%
same,IC50,lettuce seeds; [3],10 µg/mL
same,IC50,oats coleoptile; [4],30 µg/mL
"COc1cc2ccc3cc(O)c(OC)c(OC)c3c2cc1O [Compound 11, 2,6-dihydroxy-3,4,7-trimethoxyphenanthrene]",Germination Ratio,Bulbils of yam [1],50%
same,IC50,lettuce seeds; [3],100 µg/mL
same,IC50,oats coleoptile; [4],100 µg/mL
"CC(=O)c1cc(CCc2ccccc2)c(O)cc1O [Compound 4, 4,6-dihydroxy-3-acetyldibenzyl]",Germination Ratio,Bulbils of yam [1],63%
same,IC50,lettuce seeds; [3],90 µg/mL
same,IC50,oats coleoptile; [4],90 µg/mL
"COc1cc(O)c2c(c1)CCc1cc(O)c(OC)cc1-2 [Compound 18, 4,7-dihydroxy-2,6-dimethoxy-9,10-dihydrophenanthrene]",IC50,lettuce seeds; [3],160 µg/mL
same,IC50,oats coleoptile; [4],180 µg/mL
"Oc1cc(O)c2c(c1)CCc1cc(O)c(O)cc1-2 [Compound 16, 2,3,5,7-tetrahydroxy-9,10-dihydrophenanthrene]",IC50,lettuce seeds; [3],160 µg/mL
same,IC50,oats coleoptile; [4],150 µg/mL
"CC(=O)c1ccc2c(c1)CCc1cc(O)c(C(C)=O)cc1-2 [Compound 15, 7-hydroxy-2,6-diacetyl-9,10-dihydrophenanthrene]",IC50,lettuce seeds; [3],80 µg/mL
same,IC50,oats coleoptile; [4],130 µg/mL
"COc1cc(O)cc(CCc2ccccc2)c1 [Compound 1, 3-hydroxy-5-methoxybibenzyl]",IC50,lettuce seeds; [3],60 µg/mL
same,IC50,oats coleoptile; [4],80 µg/mL
"Oc1ccc(CCc2ccccc2)c(O)c1 [Compound 5, 2,4-dihydroxybibenzyl]",IC50,lettuce seeds; [3],90 µg/mL
same,IC50,oats coleoptile; [4],110 µg/mL
"COc1cc(CCc2ccc(O)cc2)cc(O)c1OC [Compound 3, 3,4'-dihydroxy-4,5-dimethoxybibenzyl]",Germination Ratio,Bulbils of yam [1],42%
same,IC50,lettuce seeds; [3],120 µg/mL
same,IC50,oats coleoptile; [4],150 µg/mL
"COc1cc(CCc2ccccc2O)c(O)c(OC)c1 [Compound 2, 2,2'-dihydroxy-3,5-dimethoxybibenzyl]",Solubility in ordinary solvents,Solubility,Soluble
same,Solubility in hexane,Solubility,insoluble
same,Solubility in water,Solubility,insoluble
same,IC50,lettuce seeds; [3],100 µg/mL
same,IC50,oats coleoptile; [4],100 µg/mL
"COc1cc2ccc3cc(O)c(O)cc3c2c(O)c1OC [Compound 12, 4,6,7-trihydroxy-2,3-dimethoxyphenanthrene]",IC50,lettuce seeds; [5],140 µg/mL
same,IC50,oats coleoptile; [6],120 µg/mL
